Results as given in US20190022110A1, “AQUEOUS BASED CAPSAICINOID FORMULATIONS AND METHODS OF MANUFACTURE AND USE” (VIZURI HEALTH SCIENCES LLC, priority 2012, published 2019).
Converted amounts (≈) assume the structure as drawn.

Tests used:
[1] = cited from earlier work
[2] = in vivo; cited from earlier work
[3] = test system: arthritic knee joints; test: Clinical study: corticosteroid pretreatment and pain due to intra-articular capsaicin injection; type: in vivo, human
Protocol: This study examined the administration of a corticosteroid as an adjunctive agent prior to the administration of capsaicin to attenuate the burning and stinging effect resulting for the intra-articular injection of capsaicin into the knee joint.
Tests were conducted to evaluate the effectiveness of a corticosteroid injection into a site prior to injection of a capsaicin formulation. Subjects with arthritic knee joints were selected and treated as follows: • The knee joint to be treated was cleaned with Betadine or other suitable antiseptic agent. • A […].
Procedures and resulting pain level experienced by the injection of subjects injected with a 0.2 mg dose level of the capsaicin formulation as a function of elapsed time are summarized in Tables IX to XV. […] A description of the 6 knees treated with the capsaicin injections follows.

[4] = test system: peripheral nociceptors; conditions: cited from earlier work
[5] = physchem; conditions: for solubility: aqueous with cosolvent or surfactant or cyclodextrin
Protocol: The teachings of this application were utilized in solubilizing capsaicin in a high purity PS 80 obtained from Croda Inc.
• 1. 10 grams of PS 80 are added to a 50 ml “Pyrex” glass vial. • 2. 2 grams of Trans-Capsaicin are added to the PS 80 in Step 1. • 3. The mixture from Step 2 is heated to ˜55° C. to dissolve the Trans-Capsaicin and form the Trans-Capsaicin/PS80 concentrate.

[6] = knee #1, patient #1, Depo-Medrol, no Lidocaine, 0.2 mg capsaicin
[7] = knee #2, patient #2, Depo-Medrol, Lidocaine, 0.2 mg capsaicin
[8] = knee #3, patient #3, Depo-Medrol, Lidocaine, 0.2 mg capsaicin
[9] = knee #4, patient #4 left, Depo-Medrol, gel pack, Lidocaine, 0.2 mg capsaicin
[10] = knee #5, patient #4 right, no corticosteroid, Lidocaine, 0.2 mg capsaicin
[11] = knee #6, patient #1 right, Depo-Medrol, cold pack, Lidocaine, 0.2 mg capsaicin

CCCNC(C)C(=O)Nc1ccccc1C (stereo not drawn) [Prilocaine]
Aqueous Soluble [1]: sparingly | Oil Soluble [1]: soluble

CC1CCC(C(C)C)C(O)C1 (stereo not drawn) [Menthol]
Aqueous Soluble [1]: slightly | Oil Soluble [1]: soluble

CCO [Ethyl Alcohol]
Aqueous Soluble [1]: miscible | Oil Soluble [1]: soluble

Polyethylene glycol [PEG]
systemic absorption [2]: less than 0.5%

CCOC(=O)c1ccc(N)cc1 [Benzocaine]
Aqueous Soluble [1]: sparingly | Oil Soluble [1]: soluble

COc1cc(CNC(=O)CCCC/C=C/C(C)C)ccc1O [Capsaicin]
Aqueous Soluble [1]: insoluble | Oil Soluble [1]: soluble | pain status of treated knees as of the date of filing ([3]; all patients, 0.2 mg capsaicin intra-articular): remain pain free | duration pain free ([3]; in one case): over 3 weeks | duration of extreme pain following capsaicin injection [3, 6]: about 1 hour | relief of arthritic pain symptoms [3, 6]: significant relief of their arthritic pain symptoms | time of procedure until relief of arthritic pain symptoms [3, 6]: ~80 min | relief of arthritic pain symptoms [3, 7]: complete relief of their osteoarthritic pain symptoms | time until procedure completed and pain relief [3, 7]: about 30 minutes | relief of arthritic pain symptoms [3, 8]: complete relief for their painful arthritic symptoms | time until procedure concluded and pain relief [3, 8]: about 23 minutes | relief of arthritic pain symptoms [3, 9]: complete relief of their painful severe osteoarthritis pain | time pain level remained at a mild level before complete relief [3, 9]: about 13 minutes | relief of arthritic pain symptoms [3, 10]: alleviated their painful arthritic symptoms | time until arthritic symptoms alleviated [3, 10]: ~25 min | relief of arthritic pain symptoms [3, 11]: complete relief of their painful arthritic symptoms | time until procedure concluded and pain relief [3, 11]: about 17 minutes | duration of subsequent mild pain ([4]; injectable capsaicin formulations, after the intense B&S pain): 1 to 2 h | duration of intense burning and stinging (B&S) pain ([4]; injectable capsaicin formulations): up to 1 hour | persistence of spontaneous burning pain and hyperalgesia ([4]; upon capsaicin injection in clinical trials): up to 60 minutes | capsaicin concentration achieved in PS 80 [5]: 200 mg/mL | capsaicin solubility with PEG-400 compared to PS80 [5]: did not achieve the capsaicin solubility levels | supersaturation of Capsaicin/PS 80 solution [5]: not supersaturated | dissolution of capsaicin without pre-formed concentrate ([5]; PS 80 and capsaicin added to water, then heated to ~70° C.-90° C.): only a fraction of the capsaicin dissolving | solubility ([5]; aqueous capsaicin solubility level): 20 mg/mL (≈ 65.5 mM) | solubility ([5]; aqueous capsaicin solubility level, 2 ml capsaicin/PS 80 concentrate added to 98 grams of ~70° C. water, cooled to room temperature): 4 mg/mL (≈ 13.1 mM) | solubility ([5]; increase of aqueous solubility of capsaicin): ~1 mg/mL (≈ 3.27 mM)
